Data published in patent publication US11377442B2, “Small molecule agonists and antagonists of NR2F6 activity” (ZANDER THERAPEUTICS, INC., priority 2016, dated 2022).
Like-named read-outs stand apart in the source and are kept apart here. Blank lines part the entries; values can stand above or below the molecule they belong to.

Columns and labels:
Format in all cases: cell-based
[1] = target: T1, NR2F6 (Homo sapiens, UniProt P10588); assay: NR2F6 agonist screening, Firefly signal cmpd/DMSO
T1 construct: expressed in transfected cells; also transient transfection
T1 sequence (P10588 1-404): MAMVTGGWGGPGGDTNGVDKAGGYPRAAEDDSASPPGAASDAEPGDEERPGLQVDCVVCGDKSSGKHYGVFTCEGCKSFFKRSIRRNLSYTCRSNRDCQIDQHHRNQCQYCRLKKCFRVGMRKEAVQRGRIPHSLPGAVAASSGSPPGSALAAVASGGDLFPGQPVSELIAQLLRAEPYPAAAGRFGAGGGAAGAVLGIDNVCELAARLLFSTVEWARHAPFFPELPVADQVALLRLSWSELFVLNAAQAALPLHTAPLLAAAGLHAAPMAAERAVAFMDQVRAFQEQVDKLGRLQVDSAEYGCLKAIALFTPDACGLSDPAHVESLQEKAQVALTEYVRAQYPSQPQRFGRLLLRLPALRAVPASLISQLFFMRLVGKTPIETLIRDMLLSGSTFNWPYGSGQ

[2] = tested on: Renilla; assay: Renilla signal in NR2F6 agonist screening, cmpd/DMSO; conditions: Renilla
[3] = tested on: HEK293 pGL4; assay: Firefly_pGL signal, cmpd/DMSO (pGL4 control cells); conditions: Homo sapiens
[4] = target: T2, NR2F6 LBD (Homo sapiens, UniProt P10588); assay: NR2F6 LBD transient transfection; conditions: LBD
T2 construct: expressed in transfected cells
T2 sequence (P10588 165-393 limits assumed): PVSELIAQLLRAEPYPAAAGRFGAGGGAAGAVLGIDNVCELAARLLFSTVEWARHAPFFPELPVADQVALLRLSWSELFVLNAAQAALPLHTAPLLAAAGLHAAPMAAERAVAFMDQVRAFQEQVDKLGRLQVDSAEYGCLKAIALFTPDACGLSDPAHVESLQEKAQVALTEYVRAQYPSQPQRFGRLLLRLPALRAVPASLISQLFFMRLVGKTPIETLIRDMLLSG
Protocol: FIGS. 27A and 27B show NR2F6 and LBD transient transfection, respectively, for Compound D28. Higher concentrations were excluded due to lower signal (tox effect). FIGS. 27C and 27D show NR2F6 and LBD transient transfection at different concentrations for different compounds. 9 compounds were tested on LBD transfected cells (40, 10, 2 and 0.5 μM, 4 replicates). FIGS. 27E and 27F show toxicity of Compound D28. 9 compounds were tested for cytotoxicity on LBD transfected cells (40, 10, 2 and 0.5 μM, 4 replicates). […] Cytotoxicity normalized to DMSO is shown in FIG. 27F (0% cytotoxicity corresponds to DMSO signal, 100%—zero signal).
FIGS. 34A and 34B show NR2F6 LBD transient transfection for Compound E21. 9 compounds were tested on LBD transfected cells (40, 10, 2 and 0.5 μM, 4 replicates). FIGS. 34C and 34D show NR2F6 and LBD transient transfection at different concentrations for different compounds. 9 compounds were tested on LBD transfected cells (40, 10, 2 and 0.5 μM, 4 replicates). […] Cytotoxicity normalized to DMSO is shown in FIG. 34D (0% cytotoxicity corresponds to DMSO signal, 100%—zero signal). All compounds were tested at 5, 10, 25 and 50 uM in duplicates. Dog PBMC (1×10^6 cells/mL) were activated by 10 ng/mL PMA+500 ng/mL ionomycin. Data were normalized to controls with (100%)/without (0%) PMA+ionomycin activation.
FIGS. 39A and 39B show NR2F6 LBD transient transfection for Compound F1. 9 compounds were tested on LBD transfected cells (40, 10, 2 and 0.5 μM, 4 replicates). FIGS. 39C and 39D show toxicity of NR2F6 LBD transient transfection. 9 compounds were tested for cytotoxicity on LBD transfected cells (40, 10, 2 and 0.5 μM, 4 replicates). Tox effect causes lower signal compared to DMSO. Cytotoxicity normalized to DMSO is shown in FIG. 39D (0% cytotoxicity corresponds to DMSO signal, 100%—zero signal).

[5] = F4, read-out: Renilla, F4, cmpd/DMSO (mean)
[6] = F4, 1% FBS, read-out: Renilla, F4, 1% FBS, cmpd/DMSO (mean)
[7] = F4, 10% FBS, read-out: Renilla, F4, 10% FBS, cmpd/DMSO (mean)
[8] = Table 14, read-out: Renilla F4, cmpd/DMSO (mean)
[9] = HEK293, Table 14, 2 uM, read-out: Firefly pGL4, cmpd/DMSO (mean)
[10] = HEK293, Table 14, 10 uM, read-out: Firefly pGL4, cmpd/DMSO (mean)
[11] = HEK293, Table 14, 40 uM, read-out: Firefly pGL4, cmpd/DMSO (mean)

Firefly F4, cmpd/DMSO (mean) ([1]; 0.5 uM, F4): 1.3
Firefly F4, cmpd/DMSO (mean) ([1]; 2 uM, F4): 1.6
Firefly F4, cmpd/DMSO (mean) ([1]; 10 uM, F4): 2.2
Firefly F4, cmpd/DMSO (mean) ([1]; 40 uM, F4): 4.0
F4, Firefly/Renilla for S/B(F4) > 3 ([1]; 1% FBS, 40 uM): 2.2
Firefly, F4/pGL4 for S/B(F4) > 3 ([1]; 1% FBS, 40 uM): 2.6
F4, Firefly/Renilla for S/B(F4) > 3 ([1]; 10% FBS, 40 uM): 2.9
Firefly, F4/pGL4 for S/B(F4) > 3 ([1]; 10% FBS, 40 uM): 2.7
Firefly, F4, 1% FBS, cmpd/DMSO (mean) ([1]; F4, 1% FBS, 0.5 uM): 1.5
Firefly, F4, 1% FBS, cmpd/DMSO (mean) ([1]; F4, 1% FBS, 2 uM): 0.8
Firefly, F4, 1% FBS, cmpd/DMSO (mean) ([1]; F4, 1% FBS, 10 uM): 1.4
Firefly, F4, 1% FBS, cmpd/DMSO (mean) ([1]; F4, 1% FBS, 40 uM): 3.8
Firefly, F4, 10% FBS, cmpd/DMSO (mean) ([1]; F4, 10% FBS, 0.5 uM): 0.8
Firefly, F4, 10% FBS, cmpd/DMSO (mean) ([1]; F4, 10% FBS, 2 uM): 1.4
Firefly, F4, 10% FBS, cmpd/DMSO (mean) ([1]; F4, 10% FBS, 10 uM): 1.5
Firefly, F4, 10% FBS, cmpd/DMSO (mean) ([1]; F4, 10% FBS, 40 uM): 6.1
Firefly LBD, cmpd/DMSO (mean) ([4]; 0.5 uM): 0.9
Firefly LBD, cmpd/DMSO (mean) ([4]; 2 uM): 1.1
Firefly LBD, cmpd/DMSO (mean) ([4]; 10 uM): 2.2
Firefly LBD, cmpd/DMSO (mean) ([4]; 40 uM): 2.2
SMILES: COCCN[C@H]1CS(=O)(=O)C[C@@H]1S(=O)(=O)c1cccs1 [Compound D107]
fold induction at 0.5 µM [2, 5]: 1.1
fold induction at 2 µM [2, 5]: 1
fold induction at 10 µM [2, 5]: 1.2
fold induction at 40 µM [2, 5]: 1.5
fold induction at 0.5 µM [2, 6]: 0.9
fold induction at 2 µM [2, 6]: 1.2
fold induction at 10 µM [2, 6]: 1.3
fold induction at 40 µM [2, 6]: 1.8
fold induction at 0.5 µM [2, 7]: 1
fold induction at 2 µM [2, 7]: 1
fold induction at 10 µM [2, 7]: 1.3
fold induction at 40 µM [2, 7]: 2.1
fold induction at 0.5 µM ([3]; HEK293, 0.5 uM, pGL4, read-out: Firefly pGL4, cmpd/DMSO (mean)): 1.2
fold induction at 2 µM ([3]; HEK293, 2 uM, pGL4, read-out: Firefly pGL4, cmpd/DMSO (mean)): 1.5
fold induction at 10 µM ([3]; HEK293, 10 uM, pGL4, read-out: Firefly pGL4, cmpd/DMSO (mean)): 2
fold induction at 40 µM ([3]; HEK293, 40 uM, pGL4, read-out: Firefly pGL4, cmpd/DMSO (mean)): 2.5
fold induction at 0.5 µM ([3]; HEK293, pGL4, 1% FBS, 0.5 uM, read-out: Firefly, pGL4, 1% FBS, cmpd/DMSO (mean)): 1.3
fold induction at 2 µM ([3]; HEK293, pGL4, 1% FBS, 2 uM, read-out: Firefly, pGL4, 1% FBS, cmpd/DMSO (mean)): 1.4
fold induction at 10 µM ([3]; HEK293, pGL4, 1% FBS, 10 uM, read-out: Firefly, pGL4, 1% FBS, cmpd/DMSO (mean)): 1.8
fold induction at 40 µM ([3]; HEK293, pGL4, 1% FBS, 40 uM, read-out: Firefly, pGL4, 1% FBS, cmpd/DMSO (mean)): 1.4
fold induction at 0.5 µM ([3]; HEK293, pGL4, 10% FBS, 0.5 uM, read-out: Firefly, pGL4, 10% FBS, cmpd/DMSO (mean)): 1.1
fold induction at 2 µM ([3]; HEK293, pGL4, 10% FBS, 2 uM, read-out: Firefly, pGL4, 10% FBS, cmpd/DMSO (mean)): 1.3
fold induction at 10 µM ([3]; HEK293, pGL4, 10% FBS, 10 uM, read-out: Firefly, pGL4, 10% FBS, cmpd/DMSO (mean)): 1.7
fold induction at 40 µM ([3]; HEK293, pGL4, 10% FBS, 40 uM, read-out: Firefly, pGL4, 10% FBS, cmpd/DMSO (mean)): 2.3

Firefly F4, cmpd/DMSO (mean) ([1]; Table 14, 2 uM): 0.7
Firefly F4, cmpd/DMSO (mean) ([1]; Table 14, 10 uM): 0.5
Firefly F4, cmpd/DMSO (mean) ([1]; Table 14, 40 uM): 0.7
SMILES: CCOC(=O)c1cnc2c(C)cc(C)cc2c1NCc1ccccc1 [Compound Z74]
fold induction at 2 µM [2, 8]: 0.8
fold induction at 10 µM [2, 8]: 0.2
fold induction at 40 µM [2, 8]: 0.3
fold induction at 2 µM [3, 9]: 0.7
fold induction at 10 µM [3, 10]: 0.6
fold induction at 40 µM [3, 11]: 0.7

Firefly F4, cmpd/DMSO (mean) ([1]; Table 14, 2 uM): 0.9
Firefly F4, cmpd/DMSO (mean) ([1]; Table 14, 10 uM): 0.5
Firefly F4, cmpd/DMSO (mean) ([1]; Table 14, 40 uM): 0.3
SMILES: CCOC(=O)c1cnc2c(C)cc(C)cc2c1N1CCC(CO)CC1 [Compound Z79]
fold induction at 2 µM [2, 8]: 0.9
fold induction at 10 µM [2, 8]: 0.6
fold induction at 40 µM [2, 8]: 0.2
fold induction at 2 µM [3, 9]: 0.8
fold induction at 10 µM [3, 10]: 0.5
fold induction at 40 µM [3, 11]: 0.8

Firefly F4, cmpd/DMSO (mean) ([1]; Table 14, 2 uM): 2.4
Firefly F4, cmpd/DMSO (mean) ([1]; Table 14, 10 uM): 0.7
Firefly F4, cmpd/DMSO (mean) ([1]; Table 14, 40 uM): 0.4
SMILES: COC(=O)c1cnc2c(C)cc(C)cc2c1NCCCN(C)C [Compound Z81]
fold induction at 2 µM [2, 8]: 1.1
fold induction at 10 µM [2, 8]: 0.3
fold induction at 40 µM [2, 8]: 0.3
fold induction at 2 µM [3, 9]: 1.4
fold induction at 10 µM [3, 10]: 0.9
fold induction at 40 µM [3, 11]: 0.7

Firefly F4, cmpd/DMSO (mean) ([1]; Table 14, 2 uM): 1.2
Firefly F4, cmpd/DMSO (mean) ([1]; Table 14, 10 uM): 0.6
Firefly F4, cmpd/DMSO (mean) ([1]; Table 14, 40 uM): 0.7
SMILES: Cc1cc(C)c2ncc(C(N)=O)c(NCCCN(C)C)c2c1 [Compound Z83]
fold induction at 2 µM [2, 8]: 1
fold induction at 10 µM [2, 8]: 0.8
fold induction at 40 µM [2, 8]: 0.3
fold induction at 2 µM [3, 9]: 1
fold induction at 10 µM [3, 10]: 0.9
fold induction at 40 µM [3, 11]: 0.5

Firefly F4, cmpd/DMSO (mean) ([1]; Table 14, 2 uM): 0.7
Firefly F4, cmpd/DMSO (mean) ([1]; Table 14, 10 uM): 2.5
Firefly F4, cmpd/DMSO (mean) ([1]; Table 14, 40 uM): 0.4
SMILES: CCOC(=O)c1cnc2c(C)cccc2c1NCCCN(C)C [Compound Z90]
fold induction at 2 µM [2, 8]: 0.9
fold induction at 10 µM [2, 8]: 0.2
fold induction at 40 µM [2, 8]: 0.1
fold induction at 2 µM [3, 9]: 0.7
fold induction at 10 µM [3, 10]: 2.4
fold induction at 40 µM [3, 11]: 0.7

Firefly F4, cmpd/DMSO (mean) ([1]; Table 14, 2 uM): 1.0
Firefly F4, cmpd/DMSO (mean) ([1]; Table 14, 10 uM): 1.1
Firefly F4, cmpd/DMSO (mean) ([1]; Table 14, 40 uM): 1.3
SMILES: Cc1cc(C)n2nc(CNS(=O)(=O)c3ccc(Cl)cc3)nc2n1 [Compound Z91]
fold induction at 2 µM [2, 8]: 1.1
fold induction at 10 µM [2, 8]: 1.1
fold induction at 40 µM [2, 8]: 0.8
fold induction at 2 µM [3, 9]: 1
fold induction at 10 µM [3, 10]: 1
fold induction at 40 µM [3, 11]: 1.1
